Assay results from ChEMBL document CHEMBL1201862, “PubChem BioAssay data set” (2004).
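Dose response: 5 concentrations. Exposure: 48 h. Format: 96-well plates. Endpoint: linear interpolation; highest concentration if not reached. GI50 is the concentration that inhibits growth by half.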 Active and inactive are the calls of the source. Rule as the data show it: active = GI50 up to about 1.1 µM and inactive = higher.

Legend:
Assay in all cases: inhibition of tumour cell growth, NCI panel, 48 h
SK-OV-3 = tested on: SK-OV-3
UACC-62 = tested on: UACC-62
OVCAR-8 = tested on: OVCAR-8
NCI-H226 = tested on: NCI-H226
CAKI-1 = tested on: CAKI-1
HOP-62 = tested on: HOP-62
SN12C = tested on: SN12C
XF498 = tested on: XF498
UACC-257 = tested on: UACC-257
A498 = tested on: A498
HOP-18 = tested on: HOP-18
SR = tested on: SR
OVCAR-4 = tested on: OVCAR-4
HOP-92 = tested on: HOP-92
M14 = tested on: M14
HL-60 = tested on: HL-60
HT-29 = tested on: HT-29
SK-MEL-2 = tested on: SK-MEL-2
Malme-3M = tested on: Malme-3M
HCT-15 = tested on: HCT-15
DMS-273 = tested on: DMS-273
OVCAR-3 = tested on: OVCAR-3
DLD-1 = tested on: DLD-1
786-0 = tested on: 786-0
ACHN = tested on: ACHN
SNB-78 = tested on: SNB-78
SNB-19 = tested on: SNB-19
SK-MEL-5 = tested on: SK-MEL-5
M19-MEL = tested on: M19-MEL
OVCAR-5 = tested on: OVCAR-5
LOX IMVI = tested on: LOX IMVI
NCI-H522 = tested on: NCI-H522
NCI-H23 = tested on: NCI-H23
SF-539 = tested on: SF-539
DMS-114 = tested on: DMS-114
SF-295 = tested on: SF-295
CCRF-CEM = tested on: CCRF-CEM
IGROV-1 = tested on: IGROV-1
A549 = tested on: A549
LXFL 529 = tested on: LXFL 529
K562 = tested on: K562
SK-MEL-28 = tested on: SK-MEL-28
COLO 205 = tested on: COLO 205
EKVX = tested on: EKVX
SW-620 = tested on: SW-620
NCI-H460 = tested on: NCI-H460
KM-20L2 = tested on: KM-20L2
HCC 2998 = tested on: HCC 2998
SF-268 = tested on: SF-268
SNB-75 = tested on: SNB-75
MOLT-4 = tested on: MOLT-4
HCT-116 = tested on: HCT-116
UO-31 = tested on: UO-31
TK-10 = tested on: TK-10
U-251 = tested on: U-251
KM12 = tested on: KM12
RPMI-8226 = tested on: RPMI-8226
RXF 393 = tested on: RXF 393
MCF7 = tested on: MCF7
NCI/ADR-RES = tested on: NCI/ADR-RES

**Q.** With `CCOP(=O)(OCC)OC(C#N)c1ccc(-c2ccccc2)cc1` (stereo not given) as the compound, how does the GI50 (SK-OV-3) read?
**A.** The GI50 was 28.4 µM (inactive).

**Q.** What about the GI50 (UACC-62) of the same compound?
**A.** The GI50 was 13.9 µM (inactive).

**Q.** And the GI50 (OVCAR-8)?
**A.** Its GI50 is 19.5 µM (inactive).

**Q.** What about the GI50 (NCI-H226) of the same compound?
**A.** The GI50 was 31.6 µM (inactive).

**Q.** And the GI50 (CAKI-1)?
**A.** Its GI50 is 22.4 µM (inactive).

**Q.** What about the GI50 (HOP-62) of the same compound?
**A.** Its GI50 is 34.5 µM (inactive).

**Q.** What about the GI50 (SN12C) of the same compound?
**A.** Its GI50 is 19 µM (inactive).

**Q.** And the GI50 (XF498)?
**A.** Its GI50 is 23.9 µM (inactive).

**Q.** What about the GI50 (UACC-257) of the same compound?
**A.** The GI50 was 20.8 µM (inactive).

**Q.** What about the GI50 (A498) of the same compound?
**A.** Its GI50 is 24.2 µM (inactive).

**Q.** What about the GI50 (HOP-18) of the same compound?
**A.** Its GI50 is 27.7 µM (inactive).

**Q.** What about the GI50 (SR) of the same compound?
**A.** Its GI50 is 30 µM (inactive).

**Q.** What about the GI50 (OVCAR-4) of the same compound?
**A.** The GI50 was 21.1 µM (inactive).

**Q.** What about the GI50 (HOP-92) of the same compound?
**A.** Its GI50 is 14.4 µM (inactive).

**Q.** And the GI50 (M14)?
**A.** Its GI50 is 18.4 µM (inactive).

**Q.** And the GI50 (HL-60)?
**A.** The GI50 was 18.4 µM (inactive).

**Q.** And the GI50 (HT-29)?
**A.** The GI50 was 17.9 µM (inactive).

**Q.** And the GI50 (SK-MEL-2)?
**A.** The GI50 was 36.3 µM (inactive).

**Q.** And the GI50 (Malme-3M)?
**A.** The GI50 was 19.6 µM (inactive).

**Q.** And the GI50 (HCT-15)?
**A.** Its GI50 is 18 µM.

**Q.** What about the GI50 (DMS-273) of the same compound?
**A.** The GI50 was 14.4 µM (inactive).

**Q.** And the GI50 (OVCAR-3)?
**A.** Its GI50 is 19.1 µM (inactive).

**Q.** What about the GI50 (DLD-1) of the same compound?
**A.** Its GI50 is 18.4 µM (inactive).

**Q.** And the GI50 (786-0)?
**A.** The GI50 was 16.9 µM (inactive).

**Q.** What about the GI50 (ACHN) of the same compound?
**A.** The GI50 was 33 µM (inactive).

**Q.** And the GI50 (SNB-78)?
**A.** Its GI50 is 33 µM (inactive).

**Q.** What about the GI50 (SNB-19) of the same compound?
**A.** The GI50 was 73.1 µM (inactive).

**Q.** And the GI50 (SK-MEL-5)?
**A.** The GI50 was 16 µM (inactive).

**Q.** And the GI50 (M19-MEL)?
**A.** Its GI50 is 21.9 µM (inactive).

**Q.** And the GI50 (OVCAR-5)?
**A.** Its GI50 is 54.1 µM (inactive).

**Q.** And the GI50 (LOX IMVI)?
**A.** The GI50 was 13.7 µM (inactive).

**Q.** And the GI50 (NCI-H522)?
**A.** The GI50 was 14.9 µM (inactive).

**Q.** And the GI50 (NCI-H23)?
**A.** Its GI50 is 27 µM (inactive).

**Q.** What about the GI50 (SF-539) of the same compound?
**A.** The GI50 was 20.8 µM (inactive).

**Q.** What about the GI50 (DMS-114) of the same compound?
**A.** Its GI50 is 15 µM (inactive).

**Q.** What about the GI50 (SF-295) of the same compound?
**A.** Its GI50 is 70.6 µM (inactive).

**Q.** And the GI50 (CCRF-CEM)?
**A.** The GI50 was 22.4 µM (inactive).

**Q.** What about the GI50 (IGROV-1) of the same compound?
**A.** Its GI50 is 36.3 µM (inactive).

**Q.** What about the GI50 (A549) of the same compound?
**A.** The GI50 was 18.4 µM (inactive).

**Q.** And the GI50 (LXFL 529)?
**A.** The GI50 was 17.8 µM (inactive).

**Q.** And the GI50 (K562)?
**A.** Its GI50 is 20.3 µM (inactive).

**Q.** And the GI50 (SK-MEL-28)?
**A.** The GI50 was 31.4 µM (inactive).

**Q.** And the GI50 (COLO 205)?
**A.** The GI50 was 18.2 µM (inactive).

**Q.** And the GI50 (EKVX)?
**A.** The GI50 was 49 µM (inactive).

**Q.** And the GI50 (SW-620)?
**A.** Its GI50 is 13.7 µM (inactive).

**Q.** What about the GI50 (NCI-H460) of the same compound?
**A.** Its GI50 is 20.5 µM (inactive).

**Q.** What about the GI50 (KM-20L2) of the same compound?
**A.** The GI50 was 41.3 µM (inactive).

**Q.** And the GI50 (HCC 2998)?
**A.** The GI50 was 28.5 µM (inactive).

**Q.** What about the GI50 (SF-268) of the same compound?
**A.** The GI50 was 18.2 µM (inactive).

**Q.** What about the GI50 (SNB-75) of the same compound?
**A.** Its GI50 is 27.7 µM (inactive).

**Q.** What about the GI50 (MOLT-4) of the same compound?
**A.** The GI50 was 14.2 µM (inactive).

**Q.** What about the GI50 (HCT-116) of the same compound?
**A.** The GI50 was 15.2 µM (inactive).

**Q.** What about the GI50 (UO-31) of the same compound?
**A.** Its GI50 is 47.3 µM (inactive).

**Q.** And the GI50 (TK-10)?
**A.** Its GI50 is 30.5 µM (inactive).

**Q.** And the GI50 (U-251)?
**A.** Its GI50 is 15.2 µM (inactive).

**Q.** What about the GI50 (KM12) of the same compound?
**A.** Its GI50 is 18.2 µM (inactive).

**Q.** What about the GI50 (RPMI-8226) of the same compound?
**A.** The GI50 was 20.7 µM (inactive).

**Q.** What does the source list for `Nc1c(S(=O)(=O)O)cc2cc(S(=O)(=O)O)ccc2c1/N=N/c1ccc(-c2ccc(/N=N/c3c(N)c(S(=O)(=O)O)cc4cc(S(=O)(=O)O)ccc34)c(S(=O)(=O)O)c2)cc1`?
**A.** GI50 (SK-OV-3): > 100 µM (inactive); GI50 (UACC-62): > 100 µM (inactive); GI50 (OVCAR-8): > 100 µM (inactive); GI50 (NCI-H226): > 81.3 µM (inactive); GI50 (HOP-62): > 100 µM (inactive); GI50 (SN12C): > 100 µM (inactive); GI50 (XF498): > 64.6 µM (inactive); GI50 (UACC-257): > 100 µM (inactive); GI50 (A498): > 100 µM (inactive); GI50 (HOP-18): > 100 µM (inactive); GI50 (OVCAR-4): 29.4 µM (inactive); GI50 (HOP-92): > 56.9 µM (inactive); GI50 (RXF 393): > 100 µM (inactive); GI50 (HL-60): > 71.1 µM (inactive); GI50 (HT-29): > 100 µM (inactive); GI50 (SK-MEL-2): > 100 µM (inactive); GI50 (Malme-3M): > 100 µM (inactive); GI50 (MCF7): 22.8 µM (inactive); GI50 (HCT-15): > 91.4 µM; GI50 (DMS-273): > 100 µM (inactive); GI50 (OVCAR-3): 71.3 µM (inactive); GI50 (DLD-1): > 100 µM (inactive); GI50 (SNB-78): 97.7 µM (inactive); GI50 (SNB-19): > 100 µM (inactive); GI50 (SK-MEL-5): > 100 µM (inactive); GI50 (M19-MEL): > 100 µM (inactive); GI50 (OVCAR-5): > 100 µM (inactive); GI50 (NCI/ADR-RES): > 100 µM (inactive); GI50 (LOX IMVI): > 100 µM (inactive); GI50 (NCI-H522): > 100 µM (inactive); GI50 (NCI-H23): > 100 µM (inactive); GI50 (SF-539): > 100 µM (inactive); GI50 (DMS-114): > 100 µM (inactive); GI50 (SF-295): > 100 µM (inactive); GI50 (CCRF-CEM): > 89.3 µM (inactive); GI50 (IGROV-1): 54.7 µM (inactive); GI50 (A549): > 83.4 µM (inactive); GI50 (K562): > 100 µM (inactive); GI50 (SK-MEL-28): > 100 µM (inactive); GI50 (COLO 205): > 100 µM (inactive); GI50 (EKVX): > 100 µM (inactive); GI50 (SW-620): > 100 µM (inactive); GI50 (NCI-H460): > 31.6 µM (inactive); GI50 (KM-20L2): 66.4 µM (inactive); GI50 (HCC 2998): > 100 µM (inactive); GI50 (SF-268): > 100 µM (inactive); GI50 (SNB-75): 85.5 µM (inactive); GI50 (MOLT-4): 95.7 µM (inactive); GI50 (HCT-116): > 100 µM (inactive); GI50 (UO-31): > 92.3 µM (inactive); GI50 (U-251): > 100 µM (inactive); GI50 (KM12): > 100 µM (inactive); GI50 (RPMI-8226): > 100 µM (inactive)
